Measurements from US11859252B2, “Diagnostic and therapeutic methods for cancer” (Genentech, Inc., priority 2017, dated 2024).
“Also recorded” adds a separate entry of the source.

Legend:
Format in all cases: cell-based
A549 cells = assay: 12×12 matrix titration, Bliss excess, […]-GLO; conditions: 3 days
Method: For combination synergy studies, cells were plated in 384-well plates (Corning) and treated with varying concentrations of compound, either alone or in combination for 72 hours. Cell viability was determined using CellTiter-Glo Luminescent Cell Viability Assay (Promega, G7573). Synergistic effects were determined using the Bliss independence analysis methods (Greco et al. Pharmacol. Rev. 47: 331-385, 1995; Chou and Talalay. Adv. Enzyme Regul. 22:27-55, 1984; Chou. Cancer Res. 70: 440-446, 2010; Bliss. Ann. Appl. Biol. 25: 31, 1939).

pMEK, pERK, pRSK, pAKT = assay: Immunoblot of pathway markers after compound treatment; conditions: for induction of pMEK by PI3K inhibition: A549 and HCT116 cells, FIGS. 7B-7D
Method: Cells lysed in lysis buffer (0.5% NP40, 20 mM Tris, pH 7.5, 137 mM NaCl, 10% glycerol, 1 mM EDTA) plus protease inhibitor mixture-complete mini (Roche Applied Science, 11836170001) and phosphatase inhibitor mix (Thermo, 78426). Lysates were centrifuged at 15,000 rpm for 10 minutes and the protein concentration determined using BCA (Thermo, 23227). Equal amounts of protein were subjected to SDS-PAGE NuPAGE 4-12% Bis-Tris Gel (Novex, WG-1403) and transferred to nitrocellulose membrane (BioRad, 170-4159). After blocking in blocking buffer (Li-Cor, 927-40000), membranes were incubated with the indicated primary antibodies and analyzed either by the addition of secondary antibodies IRDye 680LT Goat anti-Mouse IgG (H+L) (Li-Cor, 926-68050) or IRDye 800CW goat anti-Rabbit IgG (H+L) (Li-Cor, 926-32211). The membranes were visualized on the LiCor Odyssey CLx Scanner.

[1] = test system: A549 KRAS-mutant lung cancer cell line; assay: Tool compound combination screen with AZ-628; conditions: 1 μM AZ-628 versus DMSO, FIG. 1D-1E
Method: A compound library comprising 480 compounds arrayed in 9-point dose response was screened in the absence or presence of a fixed dose of either AZ-628 or DMSO in A549 cells. A549 cells were seeded into 384 well plates, and compound was added 24 h later. Cell viability was determined 120 h post-compound addition (CellTiter Glo). Curves were fitted, and both IC50 and mean viability metrics were calculated. The IC50 is the dose at which inhibition is 50% relative to untreated wells. The mean viability is the average of the fitted viabilities at each tested dose. Mean viability is equivalent to the area under the log-dose/viability curve divided by the total number of tested doses. All data were fitted using Genedata Screener (GDS) software. The combination metric was the difference in mean viability between the AZ-628 treated arm and the DMSO treated arm for each compound.

BRAF-V600E cell lines = assay: 3-day […]-GLO viability assay of RAF inhibitors, BRAF-V600E lines; conditions: single agent; BRAF-V600E mutant cell lines; FIG. 1A
Method: (§1) Seeding densities were optimized for each cell line to obtain 70-80% confluence after 4 days. The cells were plated into 384-well plates (Griener, 781091) and then treated with compound the following day in a final DMSO concentration of 0.1%. The relative numbers of viable cells were measured by luminescence using CellTiter-Glo (Promega, G7573). Viability curves were generated using a four-parameter fit in GraphPad Prism 6.

KRAS mutant cell lines = assay: 3-day […]-GLO viability assay of RAF inhibitors, KRAS mutant lines; conditions: single agent, FIG. 1A
Method: as §1

pMEK = assay: Phospho (Ser 217/221)/Total MEK1/2 assay; conditions: KRAS mutant; ratio of P-MEK and total MEK; FIG. 1B
Method: Cells were plated at a density of 20,000 cells per 96-well and treated with compound the following day for two hours in a final concentration of 0.2% DMSO. After two hours, the cells were lysed according to manufacturer's protocol (Meso Scale Discovery, K15129D), and the lysates were added to BSA-blocked plates for overnight capture at 4° C. The following day the assay plates were washed three times with TBST and the detection antibody was added for one hour at RT. The plates were then washed three times with TBST. 1× read buffer was added to the plate and immediately read on the Meso Scale Discovery SECTOR Imager 6000. Curves were generated using Graph Pad Prism 6.

RAS-GTP = assay: Ras activity assay (RAF1-RBD pull-down); conditions: A549, 24 hours, RAF1-RBD pull-down, FIG. 7E
Method: Levels of active GTP-loaded Ras were determined by GST-Raf-RBD pull-down assay (Thermo Scientific, 16117). In brief, GST-Raf-RBD fusion proteins were incubated with glutathione beads, and cells were collected in lysis buffer as recommended by the manufacturer. The cell lysates were incubated with the GST-Raf-RBD immobilized beads for 1.5 hours at 4° C. Bound proteins were eluted with SDS sample buffer and analyzed by Western blot.

Structure (SMILES): CNS(=O)(=O)Nc1nccc(Cc2c(C)c3ccc(Oc4ncccn4)cc3oc2=O)c1F [CH-6766]
- synergy with AZ-628 (Bliss excess) (A549 cells; full-dose Bliss matrix, FIG. 1G): less synergistic with AZ-628
- induction of pMEK (pMEK, pERK, pRSK, pAKT; A549 cells, 24 hours at 1 μM, FIG. 1F): do not induce pMEK

Structure (SMILES): O=C(NOC[C@H](O)CO)c1ccc(F)c(F)c1Nc1ccc(I)cc1F [PD901]
- hit ranking / mean viability difference with AZ-628 [1]: scored highest among the compounds tested

Structure (SMILES): O=C(c1c(F)ccc(NS(=O)(=O)N2CC[C@@H](F)C2)c1F)c1c[nH]c2ncc(-c3cnc(C4CC4)nc3)cc12 [PLX-8394]
- activity in cell viability assay (BRAF-V600E cell lines): showed activity in BRAF-V600E mutant cell lines
- activity in cell viability assay (KRAS mutant cell lines): but not in KRAS mutant cell lines
- paradoxical activation of downstream pMEK (pMEK): do not induce paradoxical activation
- synergy with cobimetinib (Bliss excess) (A549 cells; FIG. 2A): did not synergize with MEK inhibitors in KRAS mutant cell lines

Structure (SMILES): CC(C)(C)c1nc(-c2cccc(NS(=O)(=O)c3c(F)cccc3F)c2F)c(-c2ccnc(N)n2)s1 [dabrafenib]
- activity in cell viability assay (BRAF-V600E cell lines): showed activity in BRAF-V600E mutant cell lines
- activity in cell viability assay (KRAS mutant cell lines): but not in KRAS mutant cell lines
- paradoxical activation of downstream pMEK (pMEK): led to paradoxical activation of downstream pMEK in KRAS mutant tumors

Structure (SMILES): CS(=O)(=O)N1CCN(Cc2cc3nc(-c4cccc5[nH]ncc45)nc(N4CCOCC4)c3s2)CC1 [pictilisib]
- hit ranking / mean viability difference with AZ-628 [1]: notable hits; also recorded: among the top hits of the screen
- pERK and pRSK levels (pMEK, pERK, pRSK, pAKT; A549, 24 hours, dose-dependent, FIG. 7D): increased pERK and pRSK levels
- pAKT inhibition (pMEK, pERK, pRSK, pAKT; A549, pictilisib alone, 24 hours, FIG. 7G): robustly inhibit pAKT
- induction of pMEK by PI3K inhibition (pMEK, pERK, pRSK, pAKT; 24 hours): doing so at lower concentrations; also recorded: dose-dependent induction of pMEK
- RAS-GTP levels (RAS-GTP): dose-dependent induction of RAS-GTP levels
- RAS-GTP levels (RAS-GTP; listed as Pictilisib): increase levels of RAS-GTP (albeit at higher concentrations) similar to that induced by cobimetinib

Structure (SMILES): O=C(NC[C@H](O)CO)c1ccncc1Nc1ccc(I)cc1F [pimasertib]
- hit ranking / mean viability difference with AZ-628 [1]: scored highest among the compounds tested

Structure (SMILES): COc1cc(F)c(F)c(Nc2ccc(I)cc2F)c1NS(=O)(=O)C1(C[C@H](O)CO)CC1 [refametinib]
- hit ranking / mean viability difference with AZ-628 [1]: scored highest among the compounds tested

Structure (SMILES): Cc1nc(-c2cn3c(n2)-c2ccc(-c4cnn(C(C)(C)C(N)=O)c4)cc2OCC3)n(C(C)C)n1 [taselisib]
- hit ranking / mean viability difference with AZ-628 [1]: notable hits
- induction of pMEK by PI3K inhibition (pMEK, pERK, pRSK, pAKT; 24 hours): doing so at lower concentrations
